Reference: patent US5972598A, “Methods for preventing multidrug resistance in cancer cells” (priority 1995, dated 1999)
Entries after “also recorded” stand apart in the source; their conditions may differ. Like-named read-outs stand apart in the source and are kept apart here.

Assays:
P-glycoprotein [1] = molecular target: T1, P-glycoprotein (Homo sapiens, UniProt P08183); experiment: Dye efflux (Rh123 or DiOC2 (3)) assay of drug-treated K562 cells
Method: (§4) Top panel: Rh123 efflux from untreated cells (-) and from cells treated with 50 μM Ara-C (ARA) for 12 hours or with 10 μAra-C for 2 to 3 days.

MDR1 [2] = format: cell-based, human
Method: The times of drug exposure are indicated.
(§1) (Commercially-available kits (for example, from GIBCO/BRL, Gaithersburg, Md.) can be advantageously modified for making cDNA using random hexamers.) PCR is then performed using the following primers: […]
Next, it was tested whether drug-induced MDR1 expression was maintained after the cytotoxic treatment. […] At different time points, MDR1 expression in the surviving cells was analyzed by dye efflux and immunofluorescence labeling with UIC2 (FIG. 3c) or by cDNA-PCR (FIG. 4e).

MRP = experiment: Inhibition of MRP expression in H-9 cells; format: cell-based, human; set-up: Inhibition of MRP Expression: key to the marks not given beside the values
Method: PCR was performed using the following primers: […]
(where β2 M represents β2 microglobulin). PCR was performed for β2 M experiments under a regime consisting of 1 cycle comprising denaturation at 94° C. for 3 minutes, primer annealing at 60° C. for 30 seconds, and primer extension at 72° C. for 1 minute, followed by 19 cycles comprising denaturation at 94° C. for 30 seconds, primer annealing at 60° C. for 30 seconds, and primer extension at 72° C. for 1 minute, followed by a final cycle comprising denaturation at 94° C. for 30 seconds, primer annealing at 60° C. for 30 seconds, and primer extension at 72° C. for 5 minutes.

MDR1 [3] = conditions: cited from earlier work
P-glycoprotein [4] = molecular target: T1, P-glycoprotein
Method: as §4

MDR1 [5] = experiment: Inhibition of cytotoxic drug (Ara-C) induced MDR1 expression by protein kinase inhibitors; format: cell-based, human
Method: FIG. 5. Effect of protein kinase inhibitors on MDR1 mRNA induction by cytotoxic drugs in H9 cells. […]
as §1
(where β2 M represents β2 microglobulin). PCR was performed for β2 M experiments under a regime consisting of 1 cycle comprising denaturation at 94° C. for 3 minutes, primer annealing at 60° C. for 30 seconds, and primer extension at 72° C. for 1 minute, followed by 19 cycles comprising denaturation at 94° C. for 30 seconds, primer annealing at 60° C. for 30 seconds, and primer extension at 72° C. for 1 minute, followed by a final cycle comprising denaturation at 94° C. for 30 seconds, primer annealing at 60° C. for 30 seconds, and primer extension at 72° C. for 5 minutes. MDR1 cDNA sequences were amplified using the identical protocol as for β2 M, but extending the amplification from 19 cycles to 25 cycles. In addition, the cDNA-PCR amplification protocol contained the following modifications: (i) Taq DNA polymerase was added to the PCR mixtures after initial heating of the samples to 94° C. (ii) The yield of the β2 -microglobulin-specific band, obtained after 22-28 cycles of PCR, was used as the primary criterion for equalizing the starting amounts of the cDNA templates in different preparations, in order to account for differential RNA degradation in cells subjected to different types of treatment. […] PCR products were detected by autoradiography.
(§2) Cells were plated in 6-well Falcon tissue culture plates at 3,300 cells per well, and incubated in the appropriate concentrations of drugs. Each of the protein kinase inhibitors to be tested were added at their appropriate final concentrations 45 minutes prior to MDR1 induction by the addition of Ara-C or TPA, with the exception of herbimycin A, which was added 12 hours prior to Ara-C or TPA, and tyrphostins A25 and B46, which were each added 16 hours prior to MDR1 induction by the addition of Ara-C or TPA. Cells were incubated overnight (TPA) or for 10 hours (Ara-C) at 37° C. under an atmosphere of 5% CO2 after the addition of the MDR1 inducing agents before harvesting for cDNA-PCR analysis.
In addition to these conditions, the analysis of certain drugs imposed added requirements. For experiments using calphostin C, cells were incubated under direct white light illumination. For experiments using D,L-threo-sphingosine, the cell culture medium was pre-treated with the appropriate concentration of the drug for one hour at 37° C. with continuous gentle mixing. After this pre-treatment, cells were resuspended in media supplemented with drug and incubated for 45 minutes as described above.
(§3) cDNA-PCR analyses on each culture treated with drugs, or in control cultures incubated in the absence or presence of Ara-C or TPA alone, were performed as described in Section 6.1.3 above.
To further evaluate the capacity of protein kinase inhibitors to suppress MDR1 induction by cytotoxic drugs and PKC agonists, H-9 human T cell leukemia cells were used in cDNA-PCR assays to examine induced MDR1 mRNA expression levels in the presence of such protein kinase inhibitors.

MDR1 [6] = experiment: Inhibition of PKC agonist (TPA or DOG) induced MDR1 expression; format: cell-based, human; conditions: for inhibition of TPA-induced MDR1 expression: H-9 cells, TPA 10 ng/ml overnight
Method: as §1
as §2, with “Each of the protein kinase inhibitors to be tested were added at their appropriate final concentrations 45 minutes prior to MDR1 induction by the addition of Ara-C” left out
as §3

PKC = conditions: literature; cited from earlier work
tumor = conditions: nude mice, cited from earlier work
P-glycoprotein [7] = tested on: P-glycoprotein
Method: Mouse IgG2a isotype control antibody was obtained from Sigma. For staining of PBL with UIC2 mAB or isotype control, 10^6 cells were stained at 4° C. with 10 μg of the antibody for 30 minutes and, after two washes, stained for 30 minutes with 10 μg of FITC-conjugated goat anti-mouse IgG2a antibody (Fisher Scientific, Fairlawn, N.J.), diluted 1:2 with PBS plus 2% FCS. Cells were then washed twice with ice-cold PBS plus 2% FCS, stained with PI and kept on ice until analysis. Essentially the same protocol was used for staining of other cell types except that 2 μg of the secondary antibody were used per 10^6 cells. In some experiments, phycoerythrine (PE)-conjugated goat anti-mouse IgG2a was used as the secondary antibody; no PI was added in such cases.

[8] = K562 cells treated 3-5 days, then grown in absence of drug
[9] = KB-3-1 epidermoid carcinoma, 2 days
[10] = human leukemia and solid-tumor derived cell lines, subpopulation of treated cells

T1 sequence (P08183 whole entry): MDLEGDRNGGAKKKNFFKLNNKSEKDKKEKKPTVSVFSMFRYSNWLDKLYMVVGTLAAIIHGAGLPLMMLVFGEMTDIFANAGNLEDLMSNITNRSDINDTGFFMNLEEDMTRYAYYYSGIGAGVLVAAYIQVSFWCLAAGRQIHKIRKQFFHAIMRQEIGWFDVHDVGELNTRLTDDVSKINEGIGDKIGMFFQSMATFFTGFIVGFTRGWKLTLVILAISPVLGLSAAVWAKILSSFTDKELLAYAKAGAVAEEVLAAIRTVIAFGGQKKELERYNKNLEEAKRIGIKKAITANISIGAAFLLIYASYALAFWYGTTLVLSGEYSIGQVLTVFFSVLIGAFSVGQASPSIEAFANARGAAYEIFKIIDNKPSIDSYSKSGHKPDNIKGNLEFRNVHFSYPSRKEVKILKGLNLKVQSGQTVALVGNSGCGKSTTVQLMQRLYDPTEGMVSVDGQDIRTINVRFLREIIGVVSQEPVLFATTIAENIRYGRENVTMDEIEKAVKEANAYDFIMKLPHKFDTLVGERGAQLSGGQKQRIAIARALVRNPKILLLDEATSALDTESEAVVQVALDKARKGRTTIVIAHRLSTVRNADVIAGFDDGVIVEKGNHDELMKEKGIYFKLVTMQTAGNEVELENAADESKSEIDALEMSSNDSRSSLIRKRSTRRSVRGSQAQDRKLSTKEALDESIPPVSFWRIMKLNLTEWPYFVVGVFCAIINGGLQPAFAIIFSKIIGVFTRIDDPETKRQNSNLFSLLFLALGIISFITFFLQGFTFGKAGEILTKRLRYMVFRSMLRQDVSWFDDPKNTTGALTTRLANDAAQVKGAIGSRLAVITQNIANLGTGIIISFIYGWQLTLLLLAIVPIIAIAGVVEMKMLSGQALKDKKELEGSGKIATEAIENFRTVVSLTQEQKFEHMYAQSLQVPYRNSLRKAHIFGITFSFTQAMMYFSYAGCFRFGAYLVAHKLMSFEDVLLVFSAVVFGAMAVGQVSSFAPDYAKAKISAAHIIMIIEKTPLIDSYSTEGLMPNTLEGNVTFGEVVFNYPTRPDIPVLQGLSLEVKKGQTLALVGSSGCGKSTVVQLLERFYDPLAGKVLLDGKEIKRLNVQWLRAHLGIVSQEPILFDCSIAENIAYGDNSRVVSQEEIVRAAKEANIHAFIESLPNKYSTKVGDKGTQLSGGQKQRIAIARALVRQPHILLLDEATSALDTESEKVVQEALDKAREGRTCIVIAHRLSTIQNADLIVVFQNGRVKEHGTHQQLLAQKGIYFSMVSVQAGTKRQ

## COc1cccc2c1C(=O)c1c(O)c3c(c(O)c1C2=O)C[C@@](O)(C(=O)CO)C[C@@H]3O[C@H]1C[C@H](N)[C@H](O)[C@H](C)O1 [Adriamycin]
P-glycoprotein [1]
  treated cells showing efflux of Rh123 or DiOC2 (3): 3-10%
MDR1 [2]; H9 T-cell leukemia
  MDR1 mRNA expression: MDR1 mRNA expression was induced
MDR1 [2]; K562 cells
  MDR1 mRNA induction: induce MDR1 mRNA expression
MDR1 [2]; [8]
  maintenance of MDR1 expression after removal of the drug: least several weeks
MDR1 [2]; [9]
  MDR1 mRNA expression: MDR1 mRNA expression was induced
MDR1 [2]; [10]
  MDR1 induction, mRNA and protein levels: MDR1 induction, both at the mRNA and at the protein levels, was observed

## Nc1ccn([C@@H]2O[C@H](CO)[C@@H](O)[C@@H]2O)c(=O)n1 [Ara-C, 1-β-D-arabinofuranosylcytosine]
P-glycoprotein [1]; Ara-C 12-72 hours
  subpopulation of live cells showing efflux of Rh123: 3-17%
MDR1 [2]; Ara-C treated K562 population
  maintenance of MDR1 expression after removal of the drug: up to 11 weeks
MDR1 [2]; EJ bladder carcinoma, 10 μM, 4 days
  MDR1 mRNA expression: activated MDR1 mRNA expression
MDR1 [2]; H9 T-cell leukemia
  MDR1 mRNA expression: activated MDR1 mRNA expression
MDR1 [2]; [8]
  maintenance of MDR1 expression after removal of the drug: least several weeks
MDR1 [2]; K562 cells, Ara-C
  MDR1 mRNA expression relative to β2 -glycoprotein: dose-dependent increase in MDR1 mRNA expression
MDR1 [2]; [9]
  MDR1 mRNA expression: activated MDR1 mRNA expression
MDR1 [2]; KG1 leukemia cells, Ara-C (10 μM, 1.5 days)
  P-glycoprotein expression (Rh123 accumulation or UIC2 immunoreactivity): increased P-glycoprotein expression
MDR1 [2]; [10]
  MDR1 induction, mRNA and protein levels: MDR1 induction, both at the mRNA and at the protein levels, was observed
MRP; 25 μM Ara-C, data not shown
  effect on MRP expression: slight decrease in MRP expression

## O=[As][O-].[Na+] [arsenite]
MDR1 [3]
  MDR1 expression: increased

## COc1cccc2c1C(=O)c1c(O)c3c(c(O)c1C2=O)C[C@@](O)(C(C)=O)C[C@@H]3O[C@H]1C[C@H](N)[C@H](O)[C@H](C)O1 [daunorubicin]
MDR1 [2]
  MDR1 induction, mRNA and protein levels: MDR1 induction, both at the mRNA and at the protein levels, was observed
  MDR1 mRNA induction: induce MDR1 mRNA expression
P-glycoprotein [4]
  treated cells showing efflux of Rh123 or DiOC2 (3): 3-10%

## NC(=O)NO [hydroxyurea]
P-glycoprotein [1]
  treated cells showing efflux of Rh123 or DiOC2 (3): 3-10%
MDR1 [2]
  MDR1 induction, mRNA and protein levels: MDR1 induction, both at the mRNA and at the protein levels, was observed
  MDR1 mRNA induction: induce MDR1 mRNA expression

## COC(=O)C=Cc1cc(O)ccc1O [methyl-2,5-dihydroxycinnamate]
MDR1 [5]; H9 cells, 25 μM Ara-C 10 h, 32 μM
  inhibition of Ara-C induced MDR1 expression: ++++
MDR1 [5]; H-9 cells, 32 μM
  inhibition of Ara-C induced MDR1 expression: completely inhibit Ara-C induced MDR1 expression
MDR1 [5]; H-9 cells, 32 μM and 64 μM
  inhibition of Ara-C induced MDR1 expression: inhibits MDR1 expression at both 32 μM and 64 μM to essentially the same degree
MDR1 [6]; 32 μM
  inhibition of TPA-induced MDR1 expression: completely inhibited TPA-induced MDR1 expression
MRP; 32 μM
  Inhibition of MRP Expression: ++++
  inhibition of MRP expression: strongly inhibited; also recorded: capable of inhibiting MRP expression

## O=c1c(O)c(-c2ccc(O)c(O)c2)oc2cc(O)cc(O)c12 [quercetin]
PKC
  inhibition of protein kinase C: inhibition of PKC activity
tumor; i.p. 20 mg/kg
  potentiation of anti-tumor effect of cisplatin: potentiate the anti-tumor effect of cisplatin
MDR1 [3]
  effect on arsenite-induced increase in MDR1 expression: can prevent an increase in MDR1 expression

## CN[C@@H]1C[C@H]2O[C@@](C)([C@@H]1OC)n1c3ccccc3c3c4c(c5c6ccccc6n2c5c31)C(=O)NC4 [staurosporine]
tumor; Meyer et al., 1989
  anti-tumor effect at fraction of MTD: 1/10
  maximum tolerated dose (MTD): 1 mg/kg
MDR1 [5]; P-glycoprotein-negative cells, 30 nM
  prevention of MDR1 induction by TPA, diacylglycerol, Ara-C, vinblastine, methotrexate and Adriamycin: prevent MDR1 induction
MDR1 [6]; H9 cells, staurosporine 30 nM, 30 minutes prior to DOG
  inhibition of DOG-induced MDR1 induction: completely abolished MDR1 induction
MDR1 [6]; H9 cells, staurosporine 30 nM, 30 minutes prior to TPA
  inhibition of TPA-induced MDR1 induction: completely abolished MDR1 induction
MDR1 [6]; 30 nM
  inhibition of TPA-induced MDR1 expression: completely inhibited TPA-induced MDR1 expression
P-glycoprotein [7]; KG1a cells, staurosporine 100 nM
  P-glycoprotein expression, inhibitor alone: significant increase in P-glycoprotein expression
P-glycoprotein [7]; KG1 cells
  P-glycoprotein expression, inhibitor alone: significant increase in P-glycoprotein expression
P-glycoprotein [7]; P-glycoprotein-negative H9 cells, 30 nM
  MDR1 expression, inhibitor alone: did not induce MDR1 expression

## CC[C@]1(O)C[C@@H]2CN(CCc3c([nH]c4ccccc34)[C@@](C(=O)OC)(c3cc4c(cc3OC)N(C)[C@H]3[C@@](O)(C(=O)OC)[C@H](OC(C)=O)[C@]5(CC)C=CCN6CC[C@]43[C@@H]65)C2)C1 [vinblastine]
MDR1 [2]
  MDR1 induction, mRNA and protein levels: MDR1 induction, both at the mRNA and at the protein levels, was observed
  MDR1 mRNA expression: MDR1 mRNA expression was induced
  MDR1 mRNA induction: induce MDR1 mRNA expression
P-glycoprotein [4]
  treated cells showing efflux of Rh123 or DiOC2 (3): 3-10%
